We go through four molecules from patent US20090054259A1, “METHODS FOR INDUCING COMPLETE APOPTOSIS OF LIVER CELLS EXPRESSING HBCHI PROTEIN AND SCREENING FOR SUBSTANCES OR GENES THAT INHIBIT THE APOPTOSIS” (priority 2004, published 2009).

The structures appear in SMILES notation. Read-outs that look alike come from different tables or passages of the source.

The test system of assay [1] is Chang X31 cells. Format: cell-based, human.
Assay [2] concerns Chang X31 cells. The format is cell-based, human. The settings on record: for extent of apoptosis: 120 h.
The subject of assay [3] is Chang V9 cells. The assay is described as follows: Induction of apoptosis by sulfasalazine in the control liver cell line not expressing HBx protein. Format: cell-based, human. The settings on record: for extent of apoptosis: 120 h.
Assay [4] relates to Chang V9 cells. Nature of the assay: DAPI staining, morphology of apoptosis. Format: cell-based, human. The conditions noted are these: 1.3 mM sulfasalazine, 72 hours. As to the method: (§1) Chang X 31 and Chang V9 cells were split on 6-well plates, and […], treated with 1.3 mM sulfasalazine.
(§2) 72 hours after the sulfasalzine treatment, DAPI staining was performed to observe apoptosis. The cells were directly fixed in the cold solution consisting of 1% […] and 0.2% glutaraldehyde for 5 min, washed twice with PBS and then stained with 1 mg/ml of DAPI solution (Sigma, USA). The cells were incubated for 5 hours in dark.
(§3) The stained cells were examined using a fluorescent microscopy.

The test system of assay [5] is Chang X31 cells. Nature of the assay: DAPI staining, morphology of apoptosis. Format: cell-based, human. The settings on record: 1.3 mM sulfasalazine, 72 hours. As for the experimental part: as §1, §2, §3
The test system of another assay is NF-κB. The conditions noted are these: through inhibiting the phosphorylation of IκB; Wahl et al. 1998; cited from earlier work.

As for `N[C@@H](CCC(=O)N[C@@H](CS)C(=O)NCC(=O)O)C(=O)O` [GSH, glutathione], in the assay with Chang X31 cells [1], the “apoptosis” value is “only partial apoptosis” and the “inhibition of the apoptosis of the liver cell line (conclusion)” value is recorded as “effective in inhibiting the apoptosis”.
For `CC(=O)N[C@@H](CS)C(=O)O` [NAC, N-acetyl-L-cystein], in the assay on Chang X31 cells [1] (2 mM GSH (group I), 1 mM NAC (group II) before 1.3 mM sulfasalazine, 120 h, crystal violet), the “apoptosis” value is on record as “only partial apoptosis”. The “inhibition of the apoptosis of the liver cell line (conclusion)” value in the assay on Chang X31 cells [1] (2 mM GSH, 1 mM NAC, 0.5 mM STS, […]) is given as “effective in inhibiting the apoptosis”.
As to `CN[C@@H]1C[C@H]2O[C@@](C)([C@@H]1OC)n1c3ccccc3c3c4c(c5c6ccccc6n2c5c31)C(=O)NC4` [STS, staurosporine], the apoptosis in the assay with Chang X31 cells [1] (0.5 mM STS (group III) before 1.3 mM sulfasalazine, 120 h, crystal violet) worked out at 100%.
Regarding `O=C(O)c1cc(/N=N/c2ccc(S(=O)(=O)Nc3ccccn3)cc2)ccc1O` [sulfasalazine], the survival rate result with Chang X31 cells [2] (1.0 mM sulfasalazine, re-treated at 48 h, read 72 h after re-treatment (120 h), […]) was “at least 50%”; with Chang V9 cells [3] (1.0 mM sulfasalazine, re-treated at 48 h, read 72 h after re-treatment (120 h)), “at least 50%”. Also, the extent of apoptosis in the assay with Chang X31 cells [2] (1.3 mM sulfasalazine, […]) is on record as 100%; with Chang X31 cells [2] (at least 1.5 mM sulfasalazine, […]), 100%; in the assay on Chang V9 cells [3] (1.3 mM sulfasalazine) it was 10%; in the assay with Chang V9 cells [3] (at least 1.5 mM sulfasalazine), “at least 20%”. Moreover, the “concentration inducing complete apoptosis of Chang X31 cells” value with Chang X31 cells [2] (complete (100%) apoptosis within 120 hours) is “at least 1.3 mM”. Further, the entries for the “typical features of apoptosis (nuclear condensation, shrinkage, fragmentation)” value with Chang V9 cells [4] and with Chang X31 cells [5] were “not in Chang V9” and “observed in only Chang X 31”, respectively. Also, the “effect on TNF-α-induced nuclear translocation of NF-κB” value in the assay on NF-κB is “prevents TNF-α-induced nuclear translocation of NF-κB”.
